ChEMBL document CHEMBL4190370, “Emerging New Targets for the Treatment of Resistant Fungal Infections” (J Med Chem, 2018)
Converted amounts (≈) assume the structure as drawn.

How the values were obtained:
[1] = Inhibition of Aspergillus fumigatus AGM1
[2] = system: Candida albicans; test: Inhibition of Cch1 in Candida albicans isolate 10 assessed as potentiation of fluconazole-induced antifungal activity by measuring fractional inhibitory concentration index after 24 hrs by checkerboard assay
[3] = system: Candida albicans; test: Inhibition of Cch1 in Candida albicans isolate 16 assessed as potentiation of fluconazole-induced antifungal activity by measuring fractional inhibitory concentration index after 24 hrs by checkerboard assay
[4] = system: Cryptococcus neoformans; test: Antifungal activity against Cryptococcus neoformans; type: functional
[5] = system: Candida albicans; test: Antifungal activity against Candida albicans infected in rat model of systemic candidiasis; type: functional, organism-based
[6] = system: Aspergillus fumigatus; test: Antifungal activity against Aspergillus fumigatus; type: functional
[7] = system: Candida albicans; test: Antifungal activity against Candida albicans; type: functional
[8] = system: Cryptococcus neoformans; test: Antifungal activity against Cryptococcus neoformans H99 serotype A after 72 hrs by microdilution method; type: functional, Cryptococcus neoformans var. grubii H99
[9] = system: Aspergillus fumigatus; test: Antifungal activity against Aspergillus fumigatus IFM 40808 after 48 hrs by broth-microdilution method; type: functional; conditions: IFM 40808, 48 h
[10] = Inhibition of Aspergillus fumigatus KU80UpyrG- NMT using [3H]-MCoA and CAP5.5 as substrate after 20 mins by SPA assay
[11] = system: Aspergillus fumigatus; test: Antifungal activity against Aspergillus fumigatus ATCC 46645 after 24 hrs; type: functional; conditions: ATCC 46645, 24 h
[12] = system: Cryptococcus neoformans; test: Antifungal activity against Cryptococcus neoformans H99 after 48 hrs; type: functional; conditions: var grubii H99 
[13] = system: Aspergillus fumigatus; test: Antifungal activity against Aspergillus fumigatus MTU 06002; type: functional
[14] = system: Candida albicans; test: Synergistic antimicrobial activity against Candida albicans Ca2323 isolate at MIC concentration after 24 hrs at 30 degC in presence of G365; type: functional
[15] = system: Saccharomyces cerevisiae; test: Synergistic antimicrobial activity against Saccharomyces cerevisiae S288c isolate at MIC concentration after 24 hrs at 30 degC in presence of G365; type: functional
[16] = system: Candida albicans; test: Synergistic antimicrobial activity against Candida albicans Ca2323 isolate at MIC concentration after 24 hrs at 30 degC in presence of G884; type: functional
[17] = Toxicity in ip dosed DBA/2 mouse infected with Candida albicans MY1055 administered bid for 2 days or qd for 4 days measured on day 4; type: organism-based; conditions: in vivo
[18] = system: Saccharomyces cerevisiae; test: Synergistic antimicrobial activity against Saccharomyces cerevisiae S288c isolate at MIC concentration after 24 hrs at 30 degC in presence of G884; type: functional

Nc1ccc(O)c2c1C(=O)c1c(O)ccc(N)c1C2=O
Ki [1]: 300 µM

COC(=O)C1=C(C)NC(C)=C(C(=O)OC2CCCN(Cc3ccccc3)C2)C1c1cccc([N+](=O)[O-])c1 (stereo not drawn)
fractional inhibitory concentration index (FICI) [2]: 0.017 to 0.035 | fractional inhibitory concentration index (FICI) [3]: 0.017 to 0.035

NC(Cc1cc(O)c(O)cc1O)C(=O)O (stereo not drawn)
IC50 [1]: 58 µM

Cc1c(COc2ccc(F)c(F)c2F)oc2cccc(OCCCNCc3cccnc3)c12
MIC90 [4]: 3.13 µg/mL (≈ 6.86 µM) | EC50 [5]: 7.1 mg/kg | MIC [6]: 25 µg/mL (≈ 54.8 µM) | MIC [7]: 0.05 µg/mL (≈ 0.11 µM)

C/C=C/C[C@@H](C)[C@@H](O)[C@H]1C(=O)N[C@@H](CC)C(=O)N(C)CC(=O)N(C)[C@@H](CC(C)C)C(=O)N[C@@H](C(C)C)C(=O)N(C)[C@@H](CC(C)C)C(=O)N[C@@H](C)C(=O)N[C@H](C)C(=O)N(C)[C@@H](CC(C)C)C(=O)N(C)[C@@H](CC(C)C)C(=O)N(C)[C@@H](C(C)C)C(=O)N1C [CYCLOSPORINE]
MIC [8]: 0.39 µg/mL (≈ 0.324 µM)

CCOC(=O)C1=C(COCCN)NC(C)=C(C(=O)OC)C1c1ccccc1Cl (stereo not drawn)
fractional inhibitory concentration index (FICI) [2]: 0.017 to 0.035 | fractional inhibitory concentration index (FICI) [3]: 0.017 to 0.035

Cc1c(NS(=O)(=O)c2c(Cl)cc(-c3ccnc(N4CCNCC4)c3)cc2Cl)c(CC(C)C)nn1C [ZELENIRSTAT]
MIC [9]: 925 µM (≈ 497 µg/mL) | IC50 [10]: 0.012 µM

CC1=C(O)C(=O)C=C2C1=CC=C1[C@@]2(C)CC[C@@]2(C)[C@@H]3C[C@](C)(C(=O)O)CC[C@]3(C)CC[C@]12C [CELASTROL]
MIC [11]: 2 µM (≈ 0.901 µg/mL)

Cc1nn(-c2ccccc2)c2nc(C(F)(F)F)cc(O)c12
MIC80 [12]: 32 to 64 µg/mL (≈ 109 to 218 µM)

CCOC(=O)c1ccccc1S(=O)(=O)NC(=O)Nc1nc(Br)cc(OC)n1
MIC90 [7]: 0.72 µg/mL (≈ 1.57 µM)

C/N=[N+](\[O-])CC[C@H](N)C(=O)O
IC80 [13]: 0.72 µg/mL (≈ 4.47 µM)

Cc1nc(/N=N/c2ccc(C(=O)O)cc2)c(COP(=O)(O)O)c(C=O)c1O
IC50 [1]: 7.1 µM

C=C1C2CC3[C@@H](C(C)C)[C@H](OC(=O)NCCCC)C[C@]3(C)CC2/C(C)=C\CC2[C@H](C)OC(=O)[C@@H](O)[C@@]12O (stereo partly drawn)
fractional inhibitory concentration index (FICI) [14]: 0.25 - 0.313 | fractional inhibitory concentration index (FICI) [15]: 0.25 - 0.313 | fractional inhibitory concentration index (FICI) [16]: 0.25 - 0.313 | LD50 at 4 days [17]: > 300 mg/kg | fractional inhibitory concentration index (FICI) [18]: 0.25 - 0.313
